Experimental data from US20140378551A1, “Composition for the Prophylactic Treatment of Neuropathic Pain” (Universite d'Auvergne, priority 2011, published 2014).

Columns and labels:
[1] = tested on: neuropathic pain induced by spinal nerve ligation among rats; assay: Von Frey test: mechanical allodynia, spinal nerve ligation model; format: in vivo; details: 20 mg/kg/rat/day i.p.
Protocol: The effects of the prolonged and preventive administration of memantine were first of all studied among rats. The model used was that of the ligation of the spinal nerve L5 (herein after called SNL for spinal nerve ligation) among rats. The emergence of neuropathic pain is assessed according to the following criteria: • the behavior of the rat following the spinal nerve ligation (SNL), • cognition, and • molecular events, including the expression of phosphorylated tyrosine 1472 of the NR2B sub-unit of the NMDA receptor at the spinal level.
The study was based on the comparison of the two main groups of animals. The first group was a control group. The rats of the control group, designated as “Sham” in the graphs, underwent no operation. They are used to assess the role of the injected substances on the individual, without there being any emergence of neuropathic pain.
Two sub-groups were set up in this group: • one sub-group treated with the vehicle which is a saline solution of NaCl 0.9% by mass, in a dose of 1 mL/kg/rat/day, by intraperitoneal injection; and • one sub-group treated with memantine in a dose of 20 mg/kg/rat/day, by intraperitoneal injection.
The second group of animals comprises rats having to undergo to spinal nerve ligation and therefore likely to develop neuropathic pain. This group is referred to in the graphs by the term SNL. As in the control group, this group is divided into two sub-groups: • one sub-group treated with the vehicle, which is a saline solution of NaCl 0.9% by mass, in a dose of 1 mL/kg/rat/day, by intraperitoneal injection; and • one sub-group treated by memantine in a dose of 20 mg/kg/rat/day, by intraperitoneal injection. […]
7. Seven to 14 days after the surgery, the neuropathic, hyperalgesic or allodynic rats are selected according to their response to nociceptive and non-nociceptive stimulation assessed through appropriate tests (see paragraph 6.1.2). […]

[2] = tested on: post-operative neuropathic pain; assay: Phase 2 clinical trial, pain self-evaluation after mastectomy and axillary dissection; format: in vivo, human; details: follow-up after operation, self-evaluation scale 1 to 10; preliminary results
Protocol: A phase 2 clinical trial on the development and evaluation of neuropathic pain was conducted among patients having to undergo mastectomy and axillary dissection. The patients were separated randomly into two groups: • a control group who were to receive lactose as a placebo; and • a group treated by memantine hydrochloride (EBIXA®).
The clinical trial protocol is described in detail in the form referenced NTC014536314 (http://clinicaltrials.gov). […]
The patient's pain was evaluated by asking them to assess their own pain on a numerical scale ranging from 1 to 10 (10 being the maximum stage of pain) for the two weeks following the operation and for three months following the operation. […] The development of neuropathic pain is also evaluated by the DN4 questionnaire on neuropathic pain, and the Questionnaire sur la Douleur de Saint-Antoine (QDSA) or “Saint-Antoine pain questionnaire”. […]
FIG. 7 is a graph showing the preliminary results obtained on the first […] having taken part in these clinical trials (six patients had received the placebo composition and seven patients had received the memantine-hydrochloride-based composition), their pain being evaluated by the method of self-evaluation on a scale of 1 to 10. […]

## CC12CC3CC(C)(C1)CC(N)(C3)C2 [memantine, 1-amino-3,5-dimethyl-adamantane]
[1]; SNL rats, 4 days preceding and 3 days following the operation
  threshold of response (mechanical allodynia): restores a threshold of response almost identical to that of non-operated rats
[1]; SNL rats, solely post-operative injection
  threshold of response (mechanical allodynia): not enough to restore the normal behavior of the rats
[1]; non-operated (Sham) rats, versus vehicle
  threshold of response (mechanical allodynia): no influence whatsoever on the behavior of non-operated rats
[2]
  level of pain versus placebo: patients having received the placebo have a higher level of pain than patients having received memantine
